Test results taken from US20060205673A1, “2-Amino-3-hydroxy-4-tert-leucyl-amino-5-phenyl-pentanoic acid amide derivatives” (priority 2000, published 2006).

Target: T1, purified human placenta 20S proteasome (Homo sapiens, UniProt P28074)
T1 construct: 1 μl purified human placenta 20S proteasome; tissue Diabetes Forschungsinstitut, Düsseldorf, Germany; host or cells: human placenta
Assay: Inhibition of the chymotrypsin-like activity of the 20S proteasome (Suc-LLVY-AMC hydrolysis)
Format: biochemical
Settings: Suc-LLVY-AMC substrate, 60 min preincubation at room temperature, Table 1
Text: It is based on the hydrolysis of the fluorogenic peptide Suc-LLVY-AMC (Succinyl-leucine-leucine-valine-tyrosine-7-amino-4-methyl-coumarin), which is cleaved exclusively at the Y-AMC bond by the 20S proteasome. Hydrolysis of this peptide is accompanied by an increase in fluorescence intensity [λex (excitation wavelength): 355 nm; λem (emission wavelength): 460 nm] due to release of the internally quenched […] fluorescence that accompanies diffusion apart of the hydrolysis product Suc-LLVY.
2 μl of a 1 mM solution of a test compound in DMSO (dimethylsulfoxide, 20 μM final concentration in the well) are preincubated for 60 min at room temperature in black 96-well microtiter plates together with a mixture of 1 μl purified human placenta 20S proteasome (Diabetes Forschungsinstitut, Düsseldorf, Germany; about 100 ng proteasome, depending on the proteasome preparation) and 47 μl buffer-Ca [5 mM CaCl2, 20 mM Tris/HCl (Tris-(hydroxymethyl)-amino-methane hydrochloride) pH 8.0]. 3 μl of a 2.67 mM solution of Suc-LLVY-AMC (Bachem, Switzerland) in DMSO (80 μM final concentration in the well) and 47 μl buffer-Ca are mixed and added. The resulting mixture is incubated for 3-24 h at 37° C. If desired, proteolysis of the substrate can be stopped by addition of 50 μl stop solution (100 mM monochloroacetic acid, 130 mM NaOH, 100 mM acetic acid, pH=4.3). The fluorescence is monitored with a FLUOROSKAN ASCENT™ microtiter plate reader.
To each measure series two control experiments have to be carried out:
1.) 0% value: 2 μl DMSO are used in the above described assay instead of 2 μl of a 1 mM solution of a test compound in DMSO and 48 μl buffer-Ca instead of a mixture of 47 μl buffer-Ca and 1 μl purified proteasome.
2.) 100% value: in the above described assay 2 μl DMSO are used instead of 2 μl of a 1 mM solution of the test compound in DMSO.
The IC50 value is defined as that concentration of a compound at which the remaining activity is 50%.

**Q.** Which IC50 does the source give for `COc1ccc(CNC(=O)[C@@H](NC(=O)[C@H](NCc2ccc(N(C)C)cc2)[C@H](O)[C@H](Cc2ccccc2)NC(=O)[C@@H](NC(=O)Cc2cccc3ccccc23)C(C)(C)C)C(C)C)c(O)c1` [Example 16, (2R,3R,4S)-2-(4-Dimethylamino-benzylamino)-4-[(S)-3,3-dimethyl-2-(2-naphthalen-1-yl-acetylamino)-butyrylamino]-3-hydroxy-5-phenyl-pentanoic acid [(S)-1-(2-hydroxy-4-methoxy-benzylcarbamoyl)-2-methyl-propyl]-amide] here?
**A.** The IC50 was 160 nM.
